Earlier results in patent US20240216476A1, “COMBINATION OF BITTER RECEPTOR AGONIST AND GUT-SIGNALING COMPOUND” (AARDVARK THERAPEUTICS, INC., priority 2021, published 2024).
Read-outs that look alike come from different tables or passages of the source. Marks after values point to notes of the source that are not given here.

Columns and labels:
[1] = cited from earlier work; for Effect on Body Weight (placebo-adjusted change from baseline) / Effect on HbA1c (placebo-adjusted change from baseline): QD 24-26 weeks
ob/ob mice = details: alogliptin 42.2 mg/kg/day 28 days, cited from earlier work
[2] = test system: C57Bl/6J mice fed with high-fat diet; details: alogliptin 0.03% (wt/wt) in diet for life span, cited from earlier work
NASH in vivo models = details: cited from earlier work
[3] = cited from earlier work
[4] = semaglutide 3 mg, sitagliptin 100 mg, saxagliptin 2.5 mg, vildagliptin 50 mg, alogliptin 12.5 mg, linagliptin 5 mg
[5] = semaglutide 7 mg, sitagliptin 200 mg, saxagliptin 5 mg, vildagliptin 100 mg, alogliptin 25 mg
[6] = sitagliptin 0.0018% in diet 12 weeks
[7] = sitagliptin 0.004% in diet 12 weeks, vildagliptin 30 mg/kg/day 7 weeks
[8] = vildagliptin 30 mg/kg/day 7 weeks
[9] = C57BL/6 male mice fed MCD diet for 4 weeks, 5 mg/kg/day PO for the last 2 weeks
[10] = Male DIAMOND mice fed WDSW for 24 weeks, 30 mg/kg/day PO QD for the last 8 weeks
[11] = Male C57BL/6J mice fed AMLN diet for 50 weeks, 30 mg/kg, PO, QD for 8 weeks
[12] = Male C57BL/6J mice fed high fat diet for 20 weeks, 0.3 mg/kg/day PO for 20 weeks
[13] = C57Bl6/J mice fed MCD diet for 3 weeks, 10 or 30 mg/kg, PO, QD for 3 weeks
[14] = C57BL/6 mice on 60% high fat diet for 36 weeks, 0.3-3 mg/kg/day PO for 24 days
[15] = Male C57BL/6 mice fed CDAHFD diet for 20 weeks, 3 mg/kg PO for 12 weeks
[16] = Male C57BL/6 mice fed fast food diet for 330 days, treatment started after 240 days, dose unknown
[17] = mouse model of diet-induced NASH, 10 mg/kg/day PO for eight weeks
[18] = mouse model of diet-induced NASH, 10 mg/kg/day PO for eight weeks, significantly

## Cn1c(=O)cc(N2CCC[C@@H](N)C2)n(Cc2ccccc2C#N)c1=O [Alogliptin]
[1]; alogliptin 12.5 mg QD 26 weeks, placebo +1.3
  HDL (mg/dL): HDL (mg/dL): +0.9
[1]; alogliptin 12.5 mg QD 26 weeks, placebo +4.6
  LDL (mg/dL): LDL (mg/dL): −0.5
[1]; alogliptin 12.5 mg QD 26 weeks, placebo +10.1
  TC (mg/dL): TC (mg/dL): −1.2
[1]; alogliptin 12.5 mg QD 26 weeks, placebo +26.5
  TG (mg/dL): TG (mg/dL): −5.8
[1]; [4]
  Effect on Body Weight (placebo-adjusted change from baseline): 12.5 mg: −0.27 kg
  Effect on HbA1c (placebo-adjusted change from baseline): 12.5 mg: −0.54%
[1]; [5]
  Effect on Body Weight (placebo-adjusted change from baseline): 25 mg: −0.4 kg
  Effect on HbA1c (placebo-adjusted change from baseline): 25 mg: −0.57%
ob/ob mice
  Control-adjusted Percent Change in HbA1c Level: −13%**
ob/ob mice; [6]
  Control-adjusted Percent Change in Fasting Blood Glucose: −15.6%
  Control-adjusted Percent Change in Insulin Level: +105%* *
  Control-adjusted Percent Change in TG Level: −24.5%
[2]
  Control-adjusted Percent Change in HbA1c Level: −8.8%
  Control-adjusted Percent Change in Lipid Levels: LDL: −16.4% in LDL
[2]; [7]
  Control-adjusted Percent Change in Body Weight Gain: −32.6%*
  Control-adjusted Percent Change in Fasting Blood Glucose: −10.1%
  Control-adjusted Percent Change in Insulin Level: -47.9%*
[2]; [8]
  Control-adjusted Percent Change in Lipid Levels: TC: −1.1% in TC
  Control-adjusted Percent Change in Lipid Levels: TG: −19.2% in TG*

## CCCCCCCCCCCCCCCCCCCC(=O)N[C@H]1CC[C@@]2(C)[C@@H](C1)C[C@@H](O)[C@@H]1[C@@H]2C[C@H](O)[C@]2(C)[C@@H]([C@H](C)CCC(=O)O)CC[C@@H]12.CNC[C@H](O)[C@@H](O)[C@H](O)[C@H](O)CO [Aramchol]
NASH in vivo models; [9]
  ALT, AST, or TG: No effects on ALT,
  features of steatohepatitis and fibrosis: Reduced features of
  protein expression of COL1A1 in the liver: decreased protein

## COc1cccc(C(=O)COc2ccc(CC3SC(=O)[N-]C3=O)cc2)c1.[K+] (stereo not drawn) [Azemiglitazone (MSDC 0602K)]
NASH in vivo models; [10]
  NASH CRN fibrosis score: treated group was 0.
  ballooning: significantly decreased
  mice progressed from simple steatosis to NASH compared to the control group: Significantly fewer
  serum levels of fasting insulin, and AST and ALT: dramatically reduced
NASH in vivo models; Male DIAMOND mice fed WDSW for 24 weeks, 30 mg/kg/day PO QD for the last 8 weeks, significantly, reduced to the level of baseline controls
  steatosis-activity-fibrosis (SAF) score: lower in the MSDC-

## CCCCOCCOc1ccc(-c2ccc3c(c2)/C=C(/C(=O)Nc2ccc([S@@+]([O-])Cc4cncn4CCC)cc2)CCCN3CC(C)C)cc1 [Cenicriviroc]
NASH in vivo models; Male C57BL/6N mice fed CDAHFD, IP, 30 mg/kg/day for 4 or 14 weeks
  intrahepatic accumulation of inflammatory macrophages: Inhibited intrahepatic
NASH in vivo models; Male C57BL/6N mice fed CDAHFD, IP, 30 mg/kg/day for 14 weeks
  frequency of intrahepatic anti-inflammatory macrophages: weeks, and increased
NASH in vivo models; Male C57BL/6N mice fed CDAHFD, IP, only with 30 mg/kg/day for 14 weeks
  fibrosis on histopathology: Significantly improved

## CC[C@H]1[C@@H](O)[C@@H]2[C@H](CC[C@]3(C)[C@@H]([C@H](C)CCNC(=O)NS(=O)(=O)c4ccc(C(C)(C)C)cc4)CC[C@@H]23)[C@@]2(C)CC[C@@H](O)C[C@@H]12 [EDP-305]
NASH in vivo models; Male C57BL/6 mice fed CDAHFD diet for 12 weeks, high dose (30 mg/kg daily PO) from week 6, significant
  fibrogenic gene expression: decreased fibrogenic
NASH in vivo models; Male C57BL/6 mice fed CDAHFD diet for 12 weeks, high-dose 30 mg/kg daily PO from beginning of week 6
  fibrosis progression on histopathology: halted fibrosis

## CSc1ccc(C(=O)/C=C/c2cc(C)c(OC(C)(C)C(=O)O)c(C)c2)cc1 [Elafibranor (GFT505)]
NASH in vivo models; [11]
  histopathological scores of hepatic steatosis and inflammation, as well as fibrosis severity: Significantly reduced
  liver TG, total cholesterol contents, or plasma levels of ALT, AST, TG or total cholesterol: No effects on liver TG,

## C[C@H](NC(=O)C(=O)Nc1ccccc1C(C)(C)C)C(=O)N[C@@H](CC(=O)O)C(=O)COc1c(F)c(F)cc(F)c1F [Emricasan]
NASH in vivo models; [12]
  inflammation, ballooning, and fibrosis on histopathology: Improved
  serum levels of glucose, HOMA-IR, cholesterol, ALT, and AST: Decreased serum levels

## O=C(O)CCCc1cc2cc(Cl)ccc2n1S(=O)(=O)c1ccc2ncsc2c1 [Lanifibranor (IVA337)]
NASH in vivo models; [13]
  induction of profibrotic and fibrotic genes: inhibited the induction
  plasma alanine aminotransferase levels: significantly reduced
  steatosis and inflammation on histopathology: IVA337 prevented

## CCCCCCCCCCCCCCCC(=O)N[C@@H](CCC(=O)NCCCC[C@H](NC(=O)[C@H](C)NC(=O)[C@H](C)NC(=O)[C@H](CCC(N)=O)NC(=O)CNC(=O)[C@H](CCC(=O)O)NC(=O)[C@H](CC(C)C)NC(=O)[C@H](Cc1ccc(O)cc1)NC(=O)[C@H](CO)NC(=O)[C@H](CO)NC(=O)[C@@H](NC(=O)[C@H](CC(=O)O)NC(=O)[C@H](CO)NC(=O)[C@@H](NC(=O)[C@H](Cc1ccccc1)NC(=O)[C@@H](NC(=O)CNC(=O)[C@H](CCC(=O)O)NC(=O)[C@H](C)NC(=O)[C@@H](N)Cc1cnc[nH]1)[C@@H](C)O)[C@@H](C)O)C(C)C)C(=O)N[C@@H](CCC(=O)O)C(=O)N[C@@H](Cc1ccccc1)C(=O)N[C@H](C(=O)N[C@@H](C)C(=O)N[C@@H](Cc1c[nH]c2ccccc12)C(=O)N[C@@H](CC(C)C)C(=O)N[C@H](C(=O)N[C@@H](CCCNC(=N)N)C(=O)NCC(=O)N[C@@H](CCCNC(=N)N)C(=O)NCC(=O)O)C(C)C)[C@@H](C)CC)C(=O)O [Liraglutide]
[3]; prescribing information
  Incidence of Hypoglycemic Episodes for Combination with Metformin (vs. Placebo): 3.6%
[3]; prescribing information, lixisenatide: add-on to a sulfonylurea with or without metformin
  Incidence of Hypoglycemic Episodes for Combination with a Sulfonylurea (vs. Placebo): 7.5%

## CC[C@H]1[C@@H](O)[C@@H]2[C@H](CC[C@]3(C)[C@@H]([C@H](C)CCC(=O)O)CC[C@@H]23)[C@@]2(C)CC[C@@H](O)C[C@@H]12 [Obeticholic acid (INT-747)]
NASH in vivo models; [11]
  histopathological scores of hepatic steatosis and inflammation: Significantly reduced
  liver weight: Significantly reduced
  total liver TG and total cholesterol, collagen 1a1, and galectin-3 content: Significantly reduced
NASH in vivo models; Male C57BL/6J mice fed AMLN diet for 50 weeks, 30 mg/kg, PO, QD for 8 weeks, significant
  plasma total cholesterol: reduced plasma total

## CC(C)c1cc(Oc2c(Cl)cc(-n3nc(C#N)c(=O)[nH]c3=O)cc2Cl)n[nH]c1=O [Resmetirom (MGL-3196)]
NASH in vivo models; [14]
  insulin sensitivity: Improved insulin
  reduction of serum ALT: (46%), free fatty acids
  reduction of serum cholesterol: (67%).
  reduction of serum free fatty acids: (30%), and cholesterol
  steatosis, fibrosis or inflammation in treated livers: No detectable

## CCO[C@@H](Cc1ccc(OCCn2c(C)ccc2-c2ccc(SC)cc2)cc1)C(=O)O [Saroglitazar]
NASH in vivo models; [15]
  hepatic steatosis: induced reversal of
  liver TNFα levels and hepatic fibrogenic and inflammatory gene expression: reduced liver TNFα
  reduction of serum ALT: including ALT (60%),
  reduction of serum AST: AST (43%), and MCP1
  reduction of serum MCP1: (45%). Liver lipid (TG)
  vacuolation and ballooning: reduced or no

## Cc1cc(F)c(C(=O)Nc2cccc(-c3nncn3C(C)C)n2)cc1-n1cnc(C2CC2)c1 [Selonsertib (GS-4997)]
NASH in vivo models; [16]
  liver steatosis, fibrosis, and insulin resistance: Significantly reduced
  reduction of liver cholesterol: 45%
  reduction of serum bile acid cholate: cholate (91% reduction)
  reduction of serum cholesterol: 14%

## O=C(O)c1cc(F)c2nc(N3[C@@H]4CC[C@H]3C[C@@H](OCc3c(-c5ccccc5OC(F)(F)F)noc3C3CC3)C4)sc2c1 [Tropifexor]
NASH in vivo models; AMLN model (C57BL/6J mice on AMLN diet for 30 weeks), 0.03-0.9 mg/kg for the last 4 weeks
  inflammation, steatosis, and fibrosis: tropifexor reduced
NASH in vivo models; AMLN model (C57BL/6J mice), 0.03-0.9 mg/kg for the last 4 weeks
  mRNA levels of fibrogenic markers and hepatic inflammation cell populations: dramatically reduced
NASH in vivo models; AMLN model (C57BL/6J mice), 0.03-0.9 mg/kg for the last 4 weeks, dose-dependent
  ALT/AST levels relative to controls: reduction in ALT/AST

## Cc1cc(OCP2(=O)OCC[C@@H](c3cccc(Cl)c3)O2)cc(C)c1Cc1ccc(O)c(C(C)C)c1 (stereo partly drawn) [VK2809]
NASH in vivo models; [17]
  NAS score, mean improvement: (a 40% mean
  all subcomponents of NAS (inflammation, ballooning, and steatosis): Improvements in all
NASH in vivo models; [18]
  liver contents of triglyceride, cholesterol, collagen, and hydroxyproline: improved liver contents
  liver fibrosis on histopathology: improved NAS score
  plasma triglycerides and cholesterol: reduced plasma

## Lixisenatide
[3]; in vivo
  Incidence of Hypoglycemic Episodes for Combination with Insulin (vs. Placebo): 28%*
  Incidence of Hypoglycemic Episodes for Combination with Metformin (vs. Placebo): 3%
  Incidence of Hypoglycemic Episodes for Combination with a Sulfonylurea (vs. Placebo): 15%**
  Incidence of Hypoglycemic Episodes for Monotherapy at the Highest Dose (vs. Placebo): 2%
